Values joined by “and” are separate entries in the source; they are usually repeats but may differ in a detail not shown here. Identical values can stand only once. Inconclusive results and toxic doses are left out.
Tested on: BALB/cJ mice, ADJ-PC-6 ip tumor, median survival T/C
Test: NCI In Vivo Anticancer Drug Screen. Data for tumor model ADJ-PC-6 (intraperitoneal) in BALB/cJ mice
Conditions: endpoint: median survival time, higher = longer survival
Method: The antitumor activity of compounds was measured in mice bearing transplantable tumors. Survival or tumor size were measured and the results are expressed as the measurement made in the treated group (T) divided by the measurement made in the vehicle treated control group (C). The tumor model used in this assay is ADJ-PC-6 (intraperitoneal) in BALB/cJ mice

[1] = dose: 5.0 mg/kg/injection, schedule: Q04DX003 (ip), vehicle: saline
[2] = dose: 10.0 mg/kg/injection, schedule: Q04DX003 (ip), vehicle: saline
[3] = dose: 20.0 mg/kg/injection, schedule: Q04DX003 (ip), vehicle: saline
[4] = dose: 40.0 mg/kg/injection, schedule: Q04DX003 (ip), vehicle: saline
[5] = dose: 80.0 mg/kg/injection, schedule: Q04DX003 (ip), vehicle: saline

## COc1c(O)c2c(c3cc(C(=O)N4CCc5c4c(O)c(OC)c4[nH]c(C(=O)N6CC7CC78C6=CC(=O)c6[nH]cc(C)c68)cc54)[nH]c13)CCN2C(N)=O (stereo not drawn)
dose: 25.0 micrograms/kg/injection, schedule: Q04DX003 (ip), vehicle: DMSO
  T/C: 95 % of control
dose: 50.0 micrograms/kg/injection, schedule: Q04DX003 (ip), vehicle: DMSO
  T/C: 96 % of control
dose: 100.0 micrograms/kg/injection, schedule: Q04DX003 (ip), vehicle: DMSO
  T/C: 103 % of control
dose: 200.0 micrograms/kg/injection, schedule: Q04DX003 (ip), vehicle: DMSO
  T/C: 100 % of control

## ClCC[N+]12CC[N+](CCCl)(CC1)C2
dose: 10.0 mg/kg/injection, schedule: Q01DX009 (ip), vehicle: saline
  T/C: 88 % of control and 96 % of control and 111 % of control
dose: 20.0 mg/kg/injection, schedule: Q01DX009 (ip), vehicle: saline
  T/C: 100 % of control and 103 % of control
dose: 40.0 mg/kg/injection, schedule: Q01DX009 (ip), vehicle: saline
  T/C: 106 % of control
dose: 80.0 mg/kg/injection, schedule: Q01DX009 (ip), vehicle: saline
  T/C: 107 % of control and 113 % of control (2×)
dose: 160.0 mg/kg/injection, schedule: Q01DX009 (ip), vehicle: saline
  T/C: 96 % of control and 102 % of control and 103 % of control

## COc1cccc2c1C(=O)c1c(O)c3c(c(O)c1C2=O)C[C@@](O)(C(=O)CO)C[C@@H]3OC1CC(N)C(O)C(C)O1 (stereo partly drawn)
dose: 0.5 mg/kg/injection, schedule: Q04DX003 (iv), vehicle: saline
  T/C: 103 % of control
dose: 1.0 mg/kg/injection, schedule: Q04DX003 (iv), vehicle: saline
  T/C: 92 % of control
dose: 2.0 mg/kg/injection, schedule: Q04DX003 (iv), vehicle: saline
  T/C: 97 % of control
dose: 4.0 mg/kg/injection, schedule: Q04DX003 (iv), vehicle: saline
  T/C: 95 % of control
dose: 8.0 mg/kg/injection, schedule: Q04DX003 (iv), vehicle: saline
  T/C: 168 % of control and 225 % of control

## Cc1ncc(CO)c(CO)c1O
dose: 50.0 mg/kg/injection, schedule: Q01DX014 (sc), vehicle: saline
  T/C: 115 % of control
dose: 100.0 mg/kg/injection, schedule: Q01DX014 (sc), vehicle: saline
  T/C: 99 % of control
dose: 200.0 mg/kg/injection, schedule: Q01DX014 (sc), vehicle: saline
  T/C: 120 % of control
dose: 400.0 mg/kg/injection, schedule: Q01DX014 (sc), vehicle: saline
  T/C: 117 % of control

## CC1(CO)C(O)CCC2(C)C1CCC1CC3CC12CCC3(O)CO (stereo not drawn)
dose: 37.5 mg/kg/injection, schedule: Q04DX003 (ip), vehicle: Klucel (hydroxypropylcellulose) (HPC)
  T/C: 92 % of control and 120 % of control
dose: 75.0 mg/kg/injection, schedule: Q04DX003 (ip), vehicle: Klucel (hydroxypropylcellulose) (HPC)
  T/C: 115 % of control and 118 % of control
dose: 150.0 mg/kg/injection, schedule: Q04DX003 (ip), vehicle: Klucel (hydroxypropylcellulose) (HPC)
  T/C: 100 % of control and 109 % of control
dose: 600.0 mg/kg/injection, schedule: Q04DX003 (ip), vehicle: Klucel (hydroxypropylcellulose) (HPC)
  T/C: 106 % of control

## CC1CCC(NC(=O)N(CCCl)N=O)CC1 (stereo not drawn)
dose: 1.25 mg/kg/injection, schedule: Q04DX003 (ip), vehicle: other
  T/C: 120 % of control
dose: 2.5 mg/kg/injection, schedule: Q04DX003 (ip), vehicle: other
  T/C: 182 % of control and 183 % of control
dose: 5.0 mg/kg/injection, schedule: Q04DX003 (ip), vehicle: other
  T/C: 158 % of control and 355 % of control
dose: 10.0 mg/kg/injection, schedule: Q04DX003 (ip), vehicle: other
  T/C: 337 % of control and 355 % of control
dose: 20.0 mg/kg/injection, schedule: Q04DX003 (ip), vehicle: other
  T/C: 272 % of control and 297 % of control

## Nc1nc(F)nc2c1ncn2C1OC(COP(=O)(O)O)C(O)C1O (stereo not drawn)
dose: 25.0 mg/kg/injection, schedule: Q01DX009 (ip), vehicle: saline
  T/C: 90 % of control
dose: 50.0 mg/kg/injection, schedule: Q01DX009 (ip), vehicle: saline
  T/C: 91 % of control
dose: 100.0 mg/kg/injection, schedule: Q01DX009 (ip), vehicle: saline
  T/C: 104 % of control

## COc1cc([C@@H]2c3cc4c(cc3[C@@H](OC3OC5COC(C)OC5C(O)C3O)[C@H]3COC(=O)[C@H]23)OCO4)cc(OC)c1O (stereo partly drawn)
[1]
  T/C: 201 % of control
dose: 6.25 mg/kg/injection, schedule: Q04DX003 (ip), vehicle: saline with Tween-80
  T/C: 224 % of control
[2]
  T/C: 337 % of control
dose: 12.5 mg/kg/injection, schedule: Q04DX003 (ip), vehicle: saline with Tween-80
  T/C: 247 % of control
[3]
  T/C: 355 % of control
dose: 25.0 mg/kg/injection, schedule: Q04DX003 (ip), vehicle: saline with Tween-80
  T/C: 337 % of control
[4]
  T/C: 355 % of control
dose: 50.0 mg/kg/injection, schedule: Q04DX003 (ip), vehicle: saline with Tween-80
  T/C: 337 % of control
[5]
  T/C: 355 % of control
dose: 100.0 mg/kg/injection, schedule: Q04DX003 (ip), vehicle: saline with Tween-80
  T/C: 337 % of control

## CS(=O)(=O)c1ncc(Br)cn1
dose: 25.0 mg/kg/injection, schedule: Q01DX009 (ip), vehicle: saline with Tween-80
  T/C: 105 % of control
dose: 50.0 mg/kg/injection, schedule: Q01DX009 (ip), vehicle: saline with Tween-80
  T/C: 105 % of control
dose: 100.0 mg/kg/injection, schedule: Q01DX009 (ip), vehicle: saline with Tween-80
  T/C: 118 % of control
dose: 200.0 mg/kg/injection, schedule: Q01DX009 (ip), vehicle: saline with Tween-80
  T/C: 100 % of control

## N[C@H](C(=O)O)[C@@H]1CC(Cl)=NO1
dose: 1.0 mg/kg/injection, schedule: Q01DX009 (ip), vehicle: saline
  T/C: 121 % of control

## NC(=O)c1cn(C2OC(CO)C(O)C2O)c2ncnc(N)c12 (stereo not drawn)
dose: 0.4 mg/kg/injection, schedule: Q04DX003 (ip), vehicle: saline with Tween-80
  T/C: 107 % of control
dose: 0.8 mg/kg/injection, schedule: Q04DX003 (ip), vehicle: saline with Tween-80
  T/C: 173 % of control
dose: 6.0 mg/kg/injection, schedule: Q04DX003 (ip), vehicle: saline with Tween-80
  T/C: 182 % of control

## COc1cc([C@@H]2c3cc4c(cc3[C@@H](OC3OC5CO[C@@H](c6cccs6)OC5C(O)C3O)[C@H]3COC(=O)[C@H]23)OCO4)cc(OC)c1O (stereo partly drawn)
[1]
  T/C: 185 % of control
[2]
  T/C: 151 % of control and 207 % of control
[3]
  T/C: 264 % of control and 301 % of control
[4]
  T/C: 269 % of control and 355 % of control
[5]
  T/C: 337 % of control and 355 % of control
dose: 160.0 mg/kg/injection, schedule: Q04DX003 (ip), vehicle: saline
  T/C: 337 % of control

## CNc1nc(N(C)C)nc(N(C)C)n1
dose: 19.4 mg/kg/injection, schedule: Q01DX014 (ip), vehicle: saline
  T/C: 101 % of control
dose: 19.4 mg/kg/injection, schedule: Q01DX014 (sc), vehicle: saline
  T/C: 100 % of control and 105 % of control
dose: 32.4 mg/kg/injection, schedule: Q01DX014 (sc), vehicle: saline
  T/C: 152 % of control
dose: 54.0 mg/kg/injection, schedule: Q01DX014 (ip), vehicle: saline
  T/C: 150 % of control
dose: 54.0 mg/kg/injection, schedule: Q01DX014 (sc), vehicle: saline
  T/C: 208 % of control
dose: 90.0 mg/kg/injection, schedule: Q01DX014 (ip), vehicle: saline
  T/C: 181 % of control and 297 % of control
dose: 90.0 mg/kg/injection, schedule: Q01DX014 (sc), vehicle: saline
  T/C: 213 % of control and 243 % of control
dose: 150.0 mg/kg/injection, schedule: Q01DX014 (ip), vehicle: saline
  T/C: 45 % of control

## CCN(CC)CCNc1ccc(C)c2sc3ccccc3c(=O)c12
dose: 12.5 mg/kg/injection, schedule: Q04DX003 (ip), vehicle: water
  T/C: 103 % of control
dose: 50.0 mg/kg/injection, schedule: Q04DX003 (ip), vehicle: water
  T/C: 113 % of control
dose: 100.0 mg/kg/injection, schedule: Q04DX003 (ip), vehicle: water
  T/C: 91 % of control

## Cc1c(N)nc([C@H](CC(N)=O)NC[C@H](N)C(N)=O)nc1C(=O)N[C@H](C(=O)N[C@H](C)[C@@H](O)[C@H](C)C(=O)N[C@H](C(=O)NCCc1nc(-c2nc(C(=O)NCCC[S+](C)C)cs2)cs1)[C@@H](C)O)C(OC1OC(CO)C(O)C(O)C1OC1OC(CO)C(O)C(OC(N)=O)C1O)c1cnc[nH]1 (stereo partly drawn)
dose: 3.75 mg/kg/injection, schedule: Q04DX003 (ip), vehicle: saline
  T/C: 101 % of control and 108 % of control
dose: 7.5 mg/kg/injection, schedule: Q04DX003 (ip), vehicle: saline
  T/C: 89 % of control and 116 % of control
dose: 15.0 mg/kg/injection, schedule: Q04DX003 (ip), vehicle: saline
  T/C: 102 % of control
dose: 30.0 mg/kg/injection, schedule: Q04DX003 (ip), vehicle: saline
  T/C: 105 % of control and 112 % of control
dose: 60.0 mg/kg/injection, schedule: Q04DX003 (ip), vehicle: saline
  T/C: 106 % of control and 116 % of control

## COc1cc(NCc2ccc3nc(N)nc(N)c3c2C)cc(OC)c1OC
dose: 3.75 mg/kg/injection, schedule: Q01DX009 (ip), vehicle: Klucel (hydroxypropylcellulose) (HPC)
  T/C: 98 % of control
dose: 7.5 mg/kg/injection, schedule: Q01DX009 (ip), vehicle: Klucel (hydroxypropylcellulose) (HPC)
  T/C: 110 % of control
dose: 15.0 mg/kg/injection, schedule: Q01DX009 (ip), vehicle: Klucel (hydroxypropylcellulose) (HPC)
  T/C: 115 % of control

Reference: PubChem BioAssay AID184 (DTP/NCI, 2004)
